Test results from patent US5118691A, “Substituted tetrahydropyridines as central nervous system agents” (Warner-Lambert Co., priority 1991, dated 1992).
Read-outs that look alike come from different tables or passages of the source.

Assays:
[1] = system: locomotor activity in mice; experiment: Inhibition of locomotor activity in mice; format: in vivo; details: Mus musculus, IP
Experimental: (§1) The compounds of Formula I are valuable dopaminergic agents. […] Thus, the compounds of Formula I were tested for their ability to inhibit locomotor activity in mice according to the assay described by J. R. McLean, et al, Pharmacology, Biochemistry and Behavior, Volume 8, pages 97-99 (1978); for their ability to inhibit [^3 H]-spiroperidol binding in a receptor assay described by D. Grigoriadis and P. Seeman, Journal of Neurochemistry, Volume 44, pages 1925-1935 (1985); and for their ability to inhibit dopamine synthesis in rats according to the protocol described by J. R. Walters and R. H. Roth, Naunyn-Schmiedeberg's Archives of Pharmacology, Volume 296, pages 5-14 (1976). The above test methods are incorporated herein by reference. The data in the table show the dopaminergic activity of representative compounds of Formula I.

[2] = target: T1, [^3 H]-spiroperidol binding (Rattus norvegicus, UniProt P61169); experiment: Inhibition of [^3 H]-spiroperidol binding in a receptor assay
T1 construct: from tissue; host or cells: brain striatum (own knowledge from the cited method)
Experimental: as §1

Brain Dopamine Synthesis = experiment: Inhibition of dopamine synthesis in rats (reversal of brain dopamine synthesis); format: in vivo; details: Rattus norvegicus, IP
Experimental: as §1

[3] = read-out: Inhibition of [^3 H]Spiroperidol Binding IC50

T1 sequence (P61169 whole entry): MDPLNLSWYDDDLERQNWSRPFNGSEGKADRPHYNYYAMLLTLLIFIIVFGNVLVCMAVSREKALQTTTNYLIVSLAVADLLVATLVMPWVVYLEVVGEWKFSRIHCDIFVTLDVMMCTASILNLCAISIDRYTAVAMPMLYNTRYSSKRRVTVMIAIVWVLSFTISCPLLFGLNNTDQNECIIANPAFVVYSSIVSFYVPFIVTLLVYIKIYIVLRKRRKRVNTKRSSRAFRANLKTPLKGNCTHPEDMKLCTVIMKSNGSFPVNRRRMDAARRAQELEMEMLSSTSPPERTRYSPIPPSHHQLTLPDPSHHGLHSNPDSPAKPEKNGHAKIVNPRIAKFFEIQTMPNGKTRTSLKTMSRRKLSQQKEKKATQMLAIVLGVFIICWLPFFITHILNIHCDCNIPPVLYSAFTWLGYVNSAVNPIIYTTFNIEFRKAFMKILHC

Row | Compound | ED50 [1] [mg/kg] | IC50 [2] [µM] | inhibition in vivo at 10 mg/kg (Brain Dopamine Synthesis) [%] | IC50 [2, 3] [µM]
1 | C1=C(c2ccccc2)CCN(CCCCc2ccncc2)C1 [Example 1, 4-[4-(3,6-Dihydro-4-phenyl-1(2H)-pyridinyl)butyl]-pyridine] | 0.6 | 0.096 | 87 | –
2 | C1=C(c2cccs2)CCN(CCCCc2cnc3ccccc3c2)C1 [Example 14] | 1.5 | – | – | –
3 | C1=C(c2ccccn2)CCN(CCCCc2ccncc2)C1 [Example 2, 2-[1,2,3,6-Tetrahydro-1-[4-(4-pyridinyl)butyl]-4-pyridinyl]pyridine] | 0.7 | – | 88 | 0.448
4 | C1=C(c2ccccc2)CCN(CCCCc2cnc3ccccc3c2)C1 [Example 13, 3-[4-(3,6-Dihydro-4-phenyl-1(2H)-pyridinyl)butyl]-quinoline] | 0.37 | 0.046 | 100 | –
5 | C1=C(c2ccccc2)CCN(CCCCc2cccnc2)C1 [Example 12, 3-[4-(3,6-Dihydro-4-phenyl-1(2H)-pyridinyl)butyl]-pyridine] | 0.28 | – | 80 | 0.17
6 | C1=C(c2ccccn2)CCN(CCCCc2cnc3ccccc3c2)C1 [Example 15, 3-[4-[3,6-Dihydro-4-(2-pyridinyl)-1(2H)-pyridinyl]-butyl]quinoline] | 0.14 | – | – | –
7 | C1=C(c2cccs2)CCN(CCCCc2ccncc2)C1 [Example 4, 4-[4-[3,6-Dihydro-4-(2-thienyl)-1(2H)-pyridinyl]-butyl]pyridine] | 1.2 | 0.69 | – | –
8 | O=C(CCCN1CC=C(c2ccccc2)CC1)c1cccnc1 [Example 9, 4-(3,6-Dihydro-4-phenyl-1(2H)-pyridinyl)-1-(3-pyridinyl)-1-butanone] | 1.1 | – | 50 | –
9 | C1=C(c2cccs2)CCN(CCCCc2cccnc2)C1 [Example 8, 3-[4-[3,6-Dihydro-4-(2-thienyl)-1(2H)-pyridinyl]-butyl]pyridine] | 0.66 | – | 71 | 1.29
10 | C1=C(c2ccccc2)CCN(CCCCCc2ccncc2)C1 [Example 7, 4-[5-(3,6-Dihydro-4-phenyl-1(2H)-pyridinyl)pentyl]-pyridine] | 0.9 | – | – | –
11 | C1=C(c2c[nH]c3ccccc23)CCN(CCCCc2ccncc2)C1 [Example 3] | 5 | – | – | 0.398
12 | C1=C(c2ccccc2)CCN(CCCc2ccncc2)C1 [Example 5, 4-[3-(3,6-Dihydro-4-phenyl-1(2H)-pyridinyl)propyl]-pyridine] | 0.63 | – | 61 | –
13 | O=C(CCCN1CC=C(c2ccccc2)CC1)c1ccncc1 [Example 10, 4-(3,6-Dihydro-4-phenyl-1(2H)-pyridinyl)-1-(4-pyridinyl)-1-butanone] | 1 | – | 57 | 0.408
